According to patent publication US12202835B2, “Substituted aromatic ring-linked dioxinoquinazolines and dioxinoquinolines as kinase inhibitors” (BEIJING SCITECH-MQ PHARMACEUTICALS LIMITED, priority 2018, dated 2025):

Experiments:
[1] = target: TRKA kinase (Homo sapiens (Human), UniProt P04629); test: Assay of small molecular compounds for inhibiting the activity of TRKA kinase (LANCE TR-FRET); assay type: biochemical
Method in brief: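 TRKA (supplied as 2 nM 2× solution) was pre-reacted with compounds for 5 min at room temperature before a 4× ULight-TK peptide/ATP mix (400 nM/40 μM) started the 60-min dark reaction at 1% DMSO. After stop and 60-min detection, TR-FRET was read.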

[2] = test system: Ba/F3-AXL cells; test: Assay for inhibiting the proliferation of Ba/F3-AXL cells (CCK-8); assay type: cell-based; conditions: 72 hours of incubation, medium with 100 ng/mL hGas6, CCK-8
Procedure: The values were then imported into Graphpad Prism 5 software for curve fitting, and IC50 was calculated.

[3] = test system: MHCC97H cells; test: Assay for inhibiting the proliferation of MHCC97H cells (CCK-8); assay type: cell-based; conditions: Homo sapiens
Method in brief: (§1)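 Cells seeded in 96-well plates overnight, then exposed 72 h to 9 three-fold dilutions of compound (0.25% DMSO final). Viability by CCK-8 (1-2 h at 37° C., OD 450 nm), survival normalized to untreated and cell-free blanks; IC50 by curve fitting.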

[4] = test system: Ba/F3 LMNA-NTRK1 cells; test: Assay for inhibiting the proliferation of Ba/F3 LMNA-NTRK1 cells (CCK-8); assay type: cell-based; conditions: Mus musculus, BaF3
Method in brief: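 Viability was read as absorbance at 450 nm following 1–2 h CCK-8 incubation at 37 °C, relative to control and blank wells.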

[5] = test system: EBC1 cells; test: Assay for inhibiting the proliferation of EBC1 cells (CCK-8); assay type: cell-based; conditions: Homo sapiens, EBC-1
Method in brief: as §1

Sequence of TRKA kinase (P04629 33-796): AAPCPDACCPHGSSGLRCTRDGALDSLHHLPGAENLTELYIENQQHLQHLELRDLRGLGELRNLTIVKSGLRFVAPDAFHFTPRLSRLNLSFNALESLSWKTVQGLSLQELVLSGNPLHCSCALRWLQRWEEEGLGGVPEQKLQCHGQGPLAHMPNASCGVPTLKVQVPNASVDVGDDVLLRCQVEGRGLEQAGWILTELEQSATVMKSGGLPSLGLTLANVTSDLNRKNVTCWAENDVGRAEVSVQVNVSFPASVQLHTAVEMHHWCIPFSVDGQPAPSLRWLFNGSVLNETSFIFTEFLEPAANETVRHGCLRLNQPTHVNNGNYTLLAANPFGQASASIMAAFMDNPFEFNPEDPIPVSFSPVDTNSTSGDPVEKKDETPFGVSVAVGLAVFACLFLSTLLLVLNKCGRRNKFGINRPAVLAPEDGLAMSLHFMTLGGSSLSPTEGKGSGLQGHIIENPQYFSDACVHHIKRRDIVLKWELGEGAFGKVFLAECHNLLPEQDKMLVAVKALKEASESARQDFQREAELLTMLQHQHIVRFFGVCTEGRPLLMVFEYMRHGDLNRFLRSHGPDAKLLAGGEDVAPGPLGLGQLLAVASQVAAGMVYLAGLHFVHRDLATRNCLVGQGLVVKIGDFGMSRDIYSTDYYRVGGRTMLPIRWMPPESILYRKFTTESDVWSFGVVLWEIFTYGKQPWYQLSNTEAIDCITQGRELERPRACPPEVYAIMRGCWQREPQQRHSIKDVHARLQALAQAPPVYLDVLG

| Structure (SMILES) | IC50 [1] [nM] | IC50 [2] [nM] | IC50 [4] [nM] | IC50 [3] [nM] | IC50 [5] [nM] |
| --- | --- | --- | --- | --- | --- |
| CCOc1ccn(-c2ccc(F)cc2)c(=O)c1C(=O)Nc1ccc(Oc2ccnc3cc(OCCCO)c4c(c23)OCCO4)c(F)c1 [Example 54, N-(4-((5-(3-hydroxypropoxy)-2,3-dihydro-[1,4]dioxino[2,3-f]quinolin-10-yl)oxy)-3-fluorophenyl)-4-ethoxy-1-(4-fluorophenyl)-2-oxo-1,2-dihydropyridine-3-carboxamide] | < 50 | < 50 | < 50 | ≤ 50 | ≤ 50 |
| CCOc1ccn(-c2ccc(F)cc2)c(=O)c1C(=O)Nc1ccc(Oc2ccnc3cc(OCC#N)c4c(c23)OCCO4)c(F)c1 [Example 56, N-(4-((5-(cyanomethoxy)-2,3-dihydro-[1,4]dioxino[2,3-f]quinolin-10-yl)oxy)-3-fluorophenyl)-4-ethoxy-1-(4-fluorophenyl)-2-oxo-1,2-dihydropyridine-3-carboxamide] | < 50 | < 50 | < 50 | ≤ 50 | ≤ 50 |
| CCOc1ccn(-c2ccc(F)cc2)c(=O)c1C(=O)Nc1ccc(Oc2ccnc3cc(OC4COC4)c4c(c23)OCCO4)c(F)c1 [Example 64, N-(4-((5-((oxetan-3-yl)oxy)-2,3-dihydro-[1,4]dioxino[2,3-f]quinolin-10-yl)oxy)-3-fluorophenyl)-4-ethoxy-1-(4-fluorophenyl)-2-oxo-1,2-dihydropyridine-3-carboxamide] | < 50 | < 50 | 50 to 200 | 50 to 200 | 50 to 200 |
| CCOc1cc2nccc(Oc3ccc(NC(=O)c4c(OCC)ccn(-c5ccc(F)cc5)c4=O)cc3F)c2c2c1OCCO2 [Example 62, N-(4-((5-ethoxy-2,3-dihydro-[1,4]dioxino[2,3-f]quinolin-10-yl)oxy)-3-fluorophenyl)-4-ethoxy-1-(4-fluorophenyl)-2-oxo-1,2-dihydropyridine-3-carboxamide] | < 50 | < 50 | < 50 | ≤ 50 | ≤ 50 |
| CCOc1ccn(-c2ccc(F)cc2)c(=O)c1C(=O)Nc1ccc(Oc2ccnc3cc(OCCCC#N)c4c(c23)OCCO4)c(F)c1 [Example 57, N-(4-((5-(3-cyanopropoxy)-2,3-dihydro-[1,4]dioxino[2,3-f]quinolin-10-yl)oxy)-3-fluorophenyl)-4-ethoxy-1-(4-fluorophenyl)-2-oxo-1,2-dihydropyridine-3-carboxamide] | < 50 | < 50 | < 50 | ≤ 50 | ≤ 50 |
| CCOc1ccn(-c2ccc(F)cc2)c(=O)c1C(=O)Nc1ccc(Oc2ccnc3cc(OCCCN4CCN(C)CC4)c4c(c23)OCCO4)c(F)c1 [Example 49, N-(3-fluoro-4-((5-(3-(4-methylpiperazin-1-yl)propoxy)-2,3-dihydro-[1,4]dioxino[2,3-f]quinolin-10-yl)oxy)phenyl)-1-(4-fluorophenyl)-4-ethoxy-2-oxo-1,2-dihydropyridine-3-carboxamide] | < 50 | < 50 | < 50 | ≤ 50 | ≤ 50 |
| COCCn1cc(C(=O)Nc2ccc(Oc3ccnc4cc(OC)c5c(c34)OCCO5)c(F)c2)c(=O)n(-c2ccc(F)cc2)c1=O [Example 46, N-(3-fluoro-4-((5-methoxy-2,3-dihydro-[1,4]dioxino[2,3-f]quinolin-10-yl)oxy)phenyl)-3-(4-fluorophenyl)-1-(2-methoxyethyl)-2,4-dioxo-1,2,3,4-tetrahydropyrimidine-5-carboxamide] | 50 to 500 | < 50 | < 50 | ≤ 50 | ≤ 50 |
| CCn1cc(C(=O)Nc2ccc(Oc3ccnc4cc(OCCOC)c5c(c34)OCCO5)c(F)c2)c(=O)n(-c2ccc(F)cc2)c1=O [Example 44, N-(3-fluoro-4-((5-(2-methoxyethoxy)-2,3-dihydro-[1,4]dioxino[2,3-f]quinolin-10-yl)oxy)phenyl)-3-(4-fluorophenyl)-1-ethyl-2,4-dioxo-1,2,3,4-tetrahydropyrimidine-5-carboxamide] | < 50 | < 50 | < 50 | ≤ 50 | ≤ 50 |
| CCOc1ccn(-c2ccc(F)cc2)c(=O)c1C(=O)Nc1ccc(Oc2ccnc3cc(OCCCOC)c4c(c23)OCCO4)c(F)c1 [Example 55, N-(4-((5-(3-methoxypropoxy)-2,3-dihydro-[1,4]dioxino[2,3-f]quinolin-10-yl)oxy)-3-fluorophenyl)-4-ethoxy-1-(4-fluorophenyl)-2-oxo-1,2-dihydropyridine-3-carboxamide] | < 50 | < 50 | < 50 | ≤ 50 | ≤ 50 |
| CCOc1ccn(-c2ccc(F)cc2)c(=O)c1C(=O)Nc1ccc(Oc2ccnc3cc(OCCO)c4c(c23)OCCO4)c(F)c1 [Example 53, N-(4-((5-(2-hydroxyethoxy)-2,3-dihydro-[1,4]dioxino[2,3-f]quinolin-10-yl)oxy)-3-fluorophenyl)-4-ethoxy-1-(4-fluorophenyl)-2-oxo-1,2-dihydropyridine-3-carboxamide] | < 50 | < 50 | < 50 | ≤ 50 | ≤ 50 |
| CCOc1ccn(-c2ccc(F)cc2)c(=O)c1C(=O)Nc1ccc(Oc2ccnc3cc(OCCCN4CCN(C(C)=O)CC4)c4c(c23)OCCO4)c(F)c1 [Example 50, N-(4-((5-(3-(4-acetyl-piperazin-1-yl)propoxy)-2,3-dihydro-[1,4]dioxino[2,3-f]quinolin-10-yl)oxy)-3-fluorophenyl)-4-ethoxy-1-(4-fluorophenyl)-2-oxo-1,2-dihydropyridine-3-carboxamide] | < 50 | < 50 | < 50 | ≤ 50 | ≤ 50 |

Further lines, with some results ahead:

| IC50 [1] [nM] | IC50 [2] [nM] | IC50 [4] [nM] | Structure (SMILES) | IC50 [3] [nM] | IC50 [5] [nM] |
| --- | --- | --- | --- | --- | --- |
| < 50 | < 50 | < 50 | CCOc1ccn(-c2ccc(F)cc2)c(=O)c1C(=O)Nc1ccc(Oc2ccnc3cc(OCCCN4CCC(C)(O)CC4)c4c(c23)OCCO4)c(F)c1 [Example 69, N-(4-((5-(3-(4-hydroxy-4-methylpiperidin-1-yl)propoxy)-2,3-dihydro-[1,4]dioxino[2,3-f]quinolin-10-yl)oxy)-3-fluorophenyl)-4-ethoxy-1-(4-fluorophenyl)-2-oxo-1,2-dihydropyridine-3-carboxamide] | 50 to 200 | ≤ 50 |
| < 50 | < 50 | < 50 | CCOc1ccn(-c2ccc(F)cc2)c(=O)c1C(=O)Nc1ccc(Oc2ccnc3cc(OCCCN4CCOCC4)c4c(c23)OCCO4)c(Cl)c1 [Example 72, N-(4-((5-(3-morpholinopropoxy)-2,3-dihydro-[1,4]dioxino[2,3-f]quinolin-10-yl)oxy)-3-chlorophenyl)-4-ethoxy-1-(4-fluorophenyl)-2-oxo-1,2-dihydropyridine-3-carboxamide] | ≤ 50 | ≤ 50 |
| < 50 | < 50 | < 50 | CCOc1ccn(-c2ccc(F)cc2)c(=O)c1C(=O)Nc1ccc(Oc2ccnc3cc(OCCCN(C)CCOC)c4c(c23)OCCO4)c(F)c1 [Example 70, N-(4-((5-(3-((2-methoxyethyl)(methyl)amino)propoxy)-2,3-dihydro-[1,4]dioxino[2,3-f]quinolin-10-yl)oxy)-3-fluorophenyl)-4-ethoxy-1-(4-fluorophenyl)-2-oxo-1,2-dihydropyridine-3-carboxamide] | ≤ 50 | ≤ 50 |
| < 50 | < 50 | < 50 | CCOc1ccn(-c2ccc(F)cc2)c(=O)c1C(=O)Nc1ccc(Oc2ccnc3cc(OCCCN4CCC(C)(C)CC4)c4c(c23)OCCO4)c(F)c1 [Example 67, N-(4-((5-(3-(4,4-dimethylpiperidin-1-yl)propoxy)-2,3-dihydro-[1,4]dioxino[2,3-f]quinolin-10-yl)oxy)-3-fluorophenyl)-4-ethoxy-1-(4-fluorophenyl)-2-oxo-1,2-dihydropyridine-3-carboxamide] | ≤ 50 | ≤ 50 |
| < 50 | < 50 | 200 to 1000 | CCOc1ccn(-c2ccc(F)cc2)c(=O)c1C(=O)Nc1ccc(Oc2ccnc3cc(OCCCN4CCC(C)(N)CC4)c4c(c23)OCCO4)c(F)c1 [Example 68, N-(4-((5-(3-(4-amino-4-methylpiperidin-1-yl)propoxy)-2,3-dihydro-[1,4]dioxino[2,3-f]quinolin-10-yl)oxy)-3-fluorophenyl)-4-ethoxy-1-(4-fluorophenyl)-2-oxo-1,2-dihydropyridine-3-carboxamide] | 200 to 1000 | ≤ 50 |
| < 50 | < 50 | < 50 | CN1CCN(CCCOc2cc3nccc(Oc4ccc(NC(=O)c5cn(C)c(=O)n(-c6ccc(F)cc6)c5=O)cc4F)c3c3c2OCCO3)CC1 [Example 74, N-(3-fluoro-4-((5-(3-(4-methylpiperazin-1-yl)propoxy)-2,3-dihydro-[1,4]dioxino[2,3-f]quinolin-10-yl)oxy)phenyl)-3-(4-fluorophenyl)-1-methyl-2,4-dioxo-1,2,3,4-tetrahydropyrimidine-5-carboxamide] | 50 to 200 | ≤ 50 |
